In patent US9067908B2, “Polyphenolic bioprecursors” (RHODIA CHIMIE, priority 2005, dated 2015):
“Also recorded” adds a separate entry of the source. Read-outs that look alike come from different tables or passages of the source.

Legend:
[1] = test system: Stratum corneum enzymatic extract
Description: (§1) Samples of Stratum corneum are taken with surgical sparadrap (type Blenderm 3M Health Care, St. Paul, Minn., USA). The buffers used in the bio-hydrolysis trials are: 50 mM Tris(tris[hydroxymethyl]aminomethane) pH 7.3 and pH 8; 50 mM Na-acetate pH 5.5; 50 mM MES (2-[N-morpholino]-ethanesulphonic) acid pH 6 and 50 mM phosphate pH 6.5.
(§2) The precursors are solubilised in acetonitrile at a concentration of 1 g/l. For the bio-hydrolysis trials 50 μl of substrate and 50 μl of acetonitrile in 900 μl of enzymatic extract in the buffer at a chosen pH are added. The reaction mixtures are incubated at 35° C. without stirring and shielded from the light. The evolution of the bio-hydrolysis is determined by HPLC (high-performance liquid chromatography) with reverse phase polarity. The controls are effected in the same solutions without enzymatic extracts of skin, in order to determine the chemical stability of the products.

[2] = Solubility of precursor in the bio-hydrolysis medium; type: physicochemical
From the text: Resveratrol trilipoate is obtained via lipoic acid chloride prepared in situ under argon at ambient temperature in dichloromethane. The acylation reaction leads to a mixture of the products of coupling (phenolic and recorcinic monolipoates, dilipoates and trilipoates). The trilipoates were obtained after chromatography on silica. The product was not characterised for reasons of insolubility. For the same reasons it cannot be bio-hydrolysed (see Table 1).

[3] = test system: Stratum corneum enzymatic extract; experiment: Bio-hydrolysis with the cutaneous enzymes obtained by tape stripping; conditions: for Bio-hydrolysis Rate (%): 35° C.
Description: as §1, §2

Row | Structure (SMILES) | Active substance(s) released by bio-hydrolyse: Polyphenol (PP) [1] | Bio-hydrolysis Rate (%) [1] | Active substance(s) released by bio-hydrolyse: A [3] | Active substance(s) released by bio-hydrolyse: B [3] | Active substance(s) released by bio-hydrolyse: Polyphenol (PP) [3] | further results
1 | CCCCCC(=O)Oc1ccc(/C=C/c2cc(OC(C)=O)cc(OC(C)=O)c2)cc1 [Res(Ac)2-caproate, 3,5-resveratrol diacetate-4′-caproate] | Resveratrol | 95% |  |  |  | 
2 | O=C(CCCCC1CCSS1)Oc1ccc(/C=C/c2cc(OC(=O)CCCCC3CCSS3)cc(OC(=O)CCCCC3CCSS3)c2)cc1 (stereo not drawn) [Res(lipoate)3, 3,5,4′-resveratrol trilipoate] |  |  |  |  |  | Solubility of precursor in the medium [2]: insolubility
3 | CCCCCC(=O)Oc1ccc(/C=C/c2cc(OC(=O)CCCCC)cc(OC(=O)CCCCC)c2)cc1 [Res(caproate)3, 3,5,4′-resveratrol tricaproate, reference compound] | Resveratrol | 98% |  |  |  | Active substance(s) released by bio-hydrolyse: A [1]: Caproate
4 | CC(=O)Oc1cc(/C=C/c2ccc(OC(=O)CCCCC3CCSS3)cc2)cc(OC(C)=O)c1 (stereo not drawn) [Res(Ac)2-lipoate, (E)-4-(3,5-diacetoxystyryl)phenyl-5-(1,2-dithiolan-3-yl)pentanoate] |  |  | Acetate | Lipoate | lipoic acid; also recorded: Resveratrol + | Bio-hydrolysis Rate (%) ([3]; bio-hydrolysis time 48 h): 87%
5 | COc1cc(/C=C/C(=O)Oc2ccc(/C=C/c3cc(OC(C)=O)cc(OC(C)=O)c3)cc2)ccc1OC(C)=O [Res(Ac)2-ferulate(Ac), (E)-4-((E)-3,5-diacetoxystyryl)phenyl 3-(4-acetoxy-3-methoxyphenyl)acrylate] |  |  | Acetate | Ferulic acid | Resveratrol | Bio-hydrolysis Rate (%) ([3]; bio-hydrolysis time 6.5 h): 71%
6 | CC(=O)Oc1cc(OC(=O)CCC(=O)Oc2c(C)c(C)c3c(c2C)CCC(C)(CCCC(C)CCCC(C)CCCC(C)C)O3)c2c(=O)cc(-c3ccc(OC(C)=O)c(OC(C)=O)c3)oc2c1 (stereo not drawn) [Lut(Ac)3-succinate-Vit E, 7-acetoxy-2-(3,4-diacetoxyphenyl)-4-oxo-4H-chromen-5-yl 2,5,7,8-tetramethyl-2-(4,8,12-trimethyltridecyl)-3,4-dihydro-2H-chromen-6-yl succinate] |  |  | Acetate +; also recorded: Succinate | Vitamin E | Luteolin | Bio-hydrolysis Rate (%) ([3]; bio-hydrolysis time 5 h): 70%
